# Values of other authors, collected in patent US20250333373A1, “L-2-Amino-4-Halobutyric Acid Derivative-L-Tartrate and Preparation Method Thereof” (Vulpes Agricultural Corp., priority 2022, published 2025).
# Settings: for herbicidal effect: isomers of racemic glufosinate
Structure (SMILES),herbicidal effect,herbicidal activity relative to common glufosinate (versus common (racemic) glufosinate)
CP(=O)(O)CC[C@@H](N)C(=O)O [D],almost inactive,
CP(=O)(O)CC[C@H](N)C(=O)O [L-glufosinate],has an herbicidal effect,twice
